Values of other authors as cited in US12552784B2, “1H-pyrrolo[2,3-b]pyridine derivatives as BCL-2 inhibitors for the treatment of neoplastic and autoimmune diseases” (priority 2019, dated 2026).
Blank lines part the entries; values can stand above or below the compound they belong to.

Columns and labels:
CLL = conditions: average; read-out: EC50 apoptosis in CLL
RS4;11 xenografts = conditions: single dose of 100 mg/kg
DoHH2 = conditions: single agent or in combination with Bendamustine and other agents
Granta-519 = conditions: single agent or in combination with Bendamustine and other agents
[1] = system: CLL who have 17p deletion; conditions: Human Phase I and II
Bcl-w = target: T1, Bcl-w (Homo sapiens, UniProt Q92843)
T1 sequence (Q92843 1-193): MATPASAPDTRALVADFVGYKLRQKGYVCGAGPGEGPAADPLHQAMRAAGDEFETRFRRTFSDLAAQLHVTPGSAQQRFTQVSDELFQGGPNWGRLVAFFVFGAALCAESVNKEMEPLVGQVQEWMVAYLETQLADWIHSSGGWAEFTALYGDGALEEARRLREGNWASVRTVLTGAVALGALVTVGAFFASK

SCLC H146 cell line = conditions: read-out: IC50 against SCLC H146 cell line
H345 xenograft model = conditions: 100 mg/kg/day
small-cell lung cancer = conditions: oral administration alone
[2] = system: acute lymphoblastic leukemia; conditions: oral administration alone
[3] = in vivo
established tumors = conditions: animal models

EC50 (RS4;11 cells): 8 nM | EC50 (CLL): 3 nM
Structure (SMILES): CC1(C)CCC(CN2CCN(c3ccc(C(=O)NS(=O)(=O)c4ccc(NCC5CCOCC5)c([N+](=O)[O-])c4)c(Oc4cnc5[nH]ccc5c4)c3)CC2)=C(c2ccc(Cl)cc2)C1 [ABT-199]
apoptosis in RS4;11 cells (RS4;11 cells; with cytochrome c release, caspase activation, accumulation of sub-G0/G1 DNA): rapid apoptosis | maximal tumor growth inhibition (RS4;11 xenografts): 95% | tumor growth delay (RS4;11 xenografts): 152% | xenograft growth (DoHH2): inhibits xenograft growth | xenograft growth (Granta-519): inhibits xenograft growth | clinical efficacy [1]: highly efficacious

Ki (Bcl-w): ≤ 1 nM | IC50 (SCLC H146 cell line): 110 nM | number of circulating platelets (circulating platelets; clinical trial): rapid, concentration-dependent decrease | oral bioavailability [3]: orally bioavailable
Structure (SMILES): CC1(C)CCC(c2ccc(Cl)cc2)=C(CN2CCN(c3ccc(C(=O)NS(=O)(=O)c4ccc(N[C@H](CCN5CCOCC5)CSc5ccccc5)c(S(=O)(=O)C(F)(F)F)c4)cc3)CC2)C1 [ABT-263]
TGI (H345 xenograft model): 80% | treated tumors indicating at least a 50% reduction in tumor volume (H345 xenograft model): 20% | tumor regression (small-cell lung cancer): complete tumor regressions | tumor regression [2]: complete tumor regressions | dose-limiting toxicity (circulating platelets; single-agent treatment in patients): mechanism-based thrombocytopenia

Structure (SMILES): CN(C)CC[C@H](CSc1ccccc1)Nc1ccc(S(=O)(=O)NC(=O)c2ccc(N3CCN(Cc4ccccc4-c4ccc(Cl)cc4)CC3)cc2)cc1[N+](=O)[O-] [ABT-737]
oral bioavailability [3]: not orally bioavailable | aqueous solubility: low aqueous solubility | cures (established tumors): produces cures in a high percentage of the mice | survival (established tumors): improves survival | tumor regression (established tumors): causes regression of established tumors
